# Experimental data: US6225260A, “Quaternary ammonium salts of a sulfonylurea” (Lonza Inc., priority 1999, dated 2001)
# Assays:
# [1] = Aging / storage stability: relative decomposition of the sulfonylurea by HPLC; type: physicochemical; details: 10080 min
# Protocol: Into 7.8 g of epoxidized soybean oil (ESBO) was added with stirring: 1.18 g methyl 3-[[[[(4-methoxy-6-methyl-1,3,5-triazin-2-yl)amino]carbonyl]amino]sulfonyl]-2-thiophenecarboxylate tech (98.1%), 1.31 g of anhydrous diisobutylphenoxy ethoxyethyl dimethylbenzyl ammonium chloride in H2 O (Hyamine 1622™), 0.11 g Ca(OH)2, and 0.03 g calcium acetate.
# In a vial was vortexed the following: 0.214 g methyl 2-[[[[[(4,6-dimethoxy-2-pyrimidinyl)amino]carbonyl]amino]sulfonyl]methyl]benzoate (98.3%),0.192 g of a 25% aqueous solution of tetramethyl ammonium hydroxide, and 4.32 g of water to produce the sulfonylurea quaternary salt.
# [2] = Solubility in epoxidized soybean oil, methyl caprylate/caprate, and cottonseed oil
# Aspergillus niger = details: 6 days, Czapek solution agar
# Text: A. niger ATCC #16404 was contacted with each sulfonylurea salt for 6 days in a Czapek solution agar.
# [3] = system: Digitaria sanguinalis (Large Crabgrass); test: Herbicidal efficacy against large crabgrass (green fresh weight, percent control); type: in vivo
# Protocol: (§1) Aqueous solutions of the benzethonium salts of each sulfonylurea were prepared with and without 0.25% by weight of the nonionic surfactant polyoxyethylene (20) monolaurate (Tween 20®, trademark of ICI), based upon 100% total weight of aqueous solution. The aqueous solutions were sprayed onto giant foxtail (Setaria faberi) and large crabgrass (Digitaria sanguinalis) with a spray volume of 187 L/ha (liters/hectare). The active amount of each salt applied in grams/hectare (g/ha) is shown in Table 2 with respect to giant foxtail and Table 3 with respect to large crabgrass. The plants were evaluated two weeks after treatment with the aqueous solution by obtaining their green fresh weights and comparing these weights to an untreated control treatment to compute percent control values. Six replications were made of each treatment. All data were analyzed using a Fisher's Least Significant Difference (L.S.D.) Test at the 0.05 level.
# (§2) Aqueous solutions were prepared with 75% concentrated, water-dispersible granules (75 DF) of nicosulfuron and rimsulfuron available as Accent® herbicide and Titus® herbicide (trademarks of DuPont) with or without 0.25% by weight of Tween 20®. These aqueous solutions were tested against giant foxtail (Setaria faberi) and large crabgrass (Digitaria sanguinalis) as described in Example 4.
# [4] = system: Setaria faberi (Giant Foxtail); test: Herbicidal efficacy against giant foxtail (green fresh weight, percent control); type: in vivo
# Protocol: as §1, §2
# [5] = Hydrolytic stability in aqueous solution by HPLC (storage at room temperature for 36 days); type: physicochemical; details: 100 ppm in deionized water, after 36 days, read-out: percentage of material present after storage
# Protocol: Aqueous solutions containing 100 ppm of nicosulfuron or its benzethonium salt were prepared with deionized water and stored at room temperature for 36 days. The solutions were analyzed by HPLC with an Inersil ODS2 column and an ultraviolet detector at a wavelength of 254 nm. The mobile phase through the column consisted of acetonitrile and water at a 1:1 volume ratio. The flow rate through the column was 1 ml/min.
# physchem = details: water, pH 7, water
# [6] = Aging in deionized water: relative degradation of the sulfonylurea by HPLC; type: physicochemical; details: saturated in deionized water (500 ppm), 25° C. for 30 days
# Protocol: Deionized water (5 g) was saturated with 2-[[[[(4,6-dimethoxy-2-pyrimidinyl)amino]carbonyl]amino]sulfonyl]-N,N-dimethyl-3-pyridinecarboxamide tech (500 ppm) and aged at 25° C. for 30 days.
smiles,measurement,setting,value
CCCCCCCCCCCC[N+](CCCCCCCCCCCC)(CCCCCCCCCCCC)CCCCCCCCCCCC.COc1cc(OC)nc(NC(=O)[N-]S(=O)(=O)c2c(-c3nnn(C)n3)cnn2C)n1 [B],relative degradation,"[1]; 50% solutions in epoxidized soybean oil, methyl caprylate/caprate, and cottonseed oil, 1 week at 54° C.",20-45%
same,solubility in organic solvents,[2],more than 50%
CC(C)(C)CC(C)(C)c1ccc(OCCOCC[N+](C)(C)Cc2ccccc2)cc1.COC(=O)c1ccccc1S(=O)(=O)[N-]C(=O)Nc1nc(C)nc(OC)n1 [Benzethonium salt of metsulfuron-methyl],Minimum Effective Concentration,Aspergillus niger,300-1000 ppm
CC(C)(C)CC(C)(C)c1ccc(OCCOCC[N+](C)(C)Cc2ccccc2)cc1.COc1cc(OC)nc(NC(=O)[N-]S(=O)(=O)c2ncccc2C(=O)N(C)C)n1 [Benzethonium salt of nicosulfuron],% Control,"[3]; 20 g/ha, 0.25% Tween 20, two weeks after treatment",94%
same,% Control,"[3]; 20 g/ha, no nonionic surfactant, two weeks after treatment",34%
same,% Control,"[4]; 6 g/ha, 0.25% Tween 20, two weeks after treatment",97%
same,% Control,"[4]; 6 g/ha, no nonionic surfactant, two weeks after treatment",39%
same,Minimum Effective Concentration,Aspergillus niger,100-300 ppm
"COc1cc(OC)nc(NC(=O)NS(=O)(=O)c2ncccc2C(=O)N(C)C)n1 [nicosulfuron, 2-[[[[(4,6-dimethoxy-2-pyrimidinyl)amino]carbonyl]amino]suflonyl]-N,N-dimethyl-3-pyridinecarboxamide]",remaining at 864 h,[5],7%
same,solubility,physchem,12 mg/mL
same,degraded at 720 h,[6],90%
CC(C)(C)CC(C)(C)c1ccc(OCCOCC[N+](C)(C)Cc2ccccc2)cc1.CCS(=O)(=O)c1cccnc1S(=O)(=O)[N-]C(=O)Nc1nc(OC)cc(OC)n1 [Benzethonium salt of rimsulfuron],% Control,"[3]; 10 g/ha, 0.25% Tween 20, two weeks after treatment",94%
same,% Control,"[3]; 10 g/ha, no nonionic surfactant, two weeks after treatment",58%
same,% Control,"[4]; 3 g/ha, 0.25% Tween 20, two weeks after treatment",95%
same,% Control,"[4]; 3 g/ha, no nonionic surfactant, two weeks after treatment",25%
same,Minimum Effective Concentration,Aspergillus niger,100-300 ppm
COC(=O)c1ccccc1CS(=O)(=O)[N-]C(=O)Nc1nc(OC)cc(OC)n1.C[N+](C)(C)C [C],degradation of the sulfonylurea,"[1]; aqueous solution, one week at 54° C.",52%
